# Legend:
# L929 cells [1] = assay: Stimulation assay: TNF-α + 5Z-7 (± zVAD) induced RIPK1-dependent apoptosis/necroptosis; assay type: cell-based, murine; settings: primidone 1 mM, Nec-1s 20 μM
# Description: Murine fibroblasts (L929 cells) were stimulated for 24 h at 37° C. in the presence of (a) vehicle, (b) 10 ng/ml tumor necrosis factor alpha (TNF-α), (c) 1 μM 5Z-7-oxozeaenol (5Z-7), (d) a combination of 10 ng/ml TNF-α and 1 μM 5Z-7, (e) a combination of 10 ng/ml TNF-α, 1 μM 5Z-7, and 20 μM necrostatin-1 (Nec-1s), (f) a combination of 10 ng/ml TNF-α, 1 μM 5Z-7, and 1 mM primidone (primidone is referred to in the Figures as compound A), (g) a combination of 10 ng/ml TNF-α, 1 μM 5Z-7, and 25 μM zVAD, (h) a combination of 10 ng/ml TNF-α, 1 μM 5Z-7, and 20 μM Nec-1s, and (i) a combination of 10 ng/ml TNF-α, 1 μM 5Z-7, 25 μM zVAD, and 1 mM primidone. TNF-α is a pro-inflammatory cytokine which triggers cell survival (canonical pathway) or cell death, depending on the cellular context. 5Z-7-oxozeaenol (5Z-7) is an inhibitor of transforming growth factor activated kinase 1 (TAK1). TAK1 is an intermediate in the signaling pathway of the TNF-receptor type 1 (TNFR1), and it is known that TAK1 is essential for the prevention of TNF-induced cell death. Cells in which TAK1 is disrupted or otherwise blocked are hypersensitive to TNF-α-induced cell death due to diminished prosurvival pathways including NF-κB and reduced antioxidant enzymes which results in activation of caspases. The compound zVAD is a pan-caspase inhibitor.
# L929 cells [2] = assay: TLR3-mediated cell death induced by poly (I:C) + zVAD; assay type: cell-based, murine; settings: L929, 1 μg/ml poly (I:C) + 25 μM zVAD, 24 h; primidone 1 mM, Nec-1s 20 μM
# Description: Cell death was induced by activation of the Toll-like receptor 3 (TLR3). TLR3 is mainly expressed on immune cells, where it senses pathogen-associated molecular patterns and initiates innate immune response. The TLR3 agonist poly (I:C) was developed to mimic pathogens infection and boost immune system activation. In experimental models, poly (I:C) is known to induce regulated cell death in cells expressing TLR3. To examine whether primidone also blocks TLR3-mediated cell death, murine L929 cells were stimulated for 24 h at 37° C. with vehicle (a), 1 μg/ml of the TLR3 ligand poly (I:C) alone (b) or in combination with 25 μM zVAD (c). In addition, cells were stimulated with 1 μg/ml poly (I:C), 25 μM zVAD and 20 μM Nec-1s (d) and with 1 μg/ml poly (I:C), 25 μM zVAD and 1 mM primidone (e).
# TNF-α-induced complex I = assay: Immunoprecipitation of TNF-α-induced complex I after TSZ, RIPK1 western blot; assay type: cell-based, human; settings: U937, TSZ (100 ng/ml Fc-TNF-α + 1 μM SM164 + 25 μM zVAD), 1 mM primidone
# Description: (§1) It was tested whether primidone interferes with binding of TNF-α to its corresponding receptor TNFR1. To induce cell death, human U937 cells were treated in the absence (vehicle) or presence of 1 mM primidone with 100 ng/ml Fc-tagged TNF-α+1 μM SMAC mimetic SM164+25 μM zVAD (TSZ) for different time periods, followed by immunopurification of the immunoprecipitated TNF-α-induced complex I using μMACS™ protein A/G microbeads, and western blot analysis using a specific RIPK1 antibody.
# RIPK1 = RIPK1 phosphorylation (Ser166) western blot after TSZ; assay type: cell-based, human; settings: U937, TSZ, 1 mM primidone
# Description: as §1
# It was then analyzed if the previously immunoprecipitated RIPK1 is activated by phosphorylation. For this purpose, the Western Blot shown before (FIG. 5) was “stripped” by chemically removing all reagents from the blot and re-developed with an antibody that only detects RIPK1 in its activate (i.e. phosphorylated) form.
# Jurkat cells = assay: Anti-Fas antibody induced RIPK1-independent apoptosis; assay type: cell-based, human; settings: 5 ng/ml anti-Fas antibody, 5 h, zVAD 25 μM, primidone 1 mM
# Description: To this end, human T cells (Jurkat cells) were incubated for 5 h at 37° C. in the presence of (a) vehicle, (b) 5 ng/ml anti-Fas antibody, (c) 5 ng/ml anti-Fas antibody in combination with 25 μM of the pan-caspase inhibitor zVAD, and (d) 5 ng/ml anti-Fas antibody in combination with 1 mM primidone. The addition of the anti-Fas antibody induces apoptosis, a caspase-dependent form of regulated cell death that can be inhibited by the addition of the pan-caspase inhibitor zVAD.
# L929 cells [3] = assay: Time profile of blocking TZ-induced necroptosis, FACS (7-AAD/Annexin V); assay type: cell-based, murine; settings: L929, 10 ng/ml TNF-α + 25 μM zVAD (TZ), 24 h; primidone 1 mM, Nec-1s 25 μM; one representative experiment of three
# Description: The time profile of primidone for blocking cell death was compared to the one of Nec-1s. For this purpose, murine L929 cells were stimulated at 37° C. for 24 h with 10 ng/ml TNF-α+25 μM zVAD (TZ) in the presence of 1 mM primidone and 25 μM Nec-1s, respectively, for the indicated durations. Nec-1s and primidone were added 30 min before, 60 min and 180 min after the induction of RIPK1-mediated necroptosis, respectively. Cell death was quantified by FACS analysis using 7-amino-actinomycin D and phosphatidylserine accessibility (Annexin V staining) as markers.
# [4] = TNF-α-induced SIRS mouse model; assay type: in vivo; settings: C57BL/6 mice, 10 mg/kg i.p. 15 min before 1 mg/kg murine TNF-α i.v.
# Description: Hypothermia and morbidity induced by a high dose of TNF-α is considered in the literature to be a model for systemic inflammatory response syndrome (SIRS) (Moerke C, et al. (2019); Newton K, et al. (2014); Duprez L, et al. (2011)). All mice (8 weeks old) used in this experiment were on C57BL/6 background and age-, sex-, and weight-matched. Recombinant carrier-free murine TNF-α was obtained from R&D Systems (Bio-Techne, Wiesbaden, Germany). Each mouse received a single bolus of 1 mg murine TNF-α/kg body weight in a total volume of […] phosphate-buffered saline, via the tail vein. In this setting, mice received 15 min before TNF-α application a single intraperitoneal (i.p.) injection (total volume per mouse was 200 μl) of either 2.5% DMSO in PBS (vehicle) or 10 mg primidone/kg body weight (as indicated). Thereafter, the animals (n=16 per group) were placed under permanent observation and survival was checked every 15 min. Survival is depicted in a Kaplan-Meier plot (*** p<0.001).
smiles,measurement,setting,value
"CCC1(c2ccccc2)C(=O)NCNC1=O [primidone, 5-Ethyl-5-phenyl-1,3-diazinane-4,6-dione]",Block of RIPK1-dependent necroptosis,"L929 cells [1]; L929, 10 ng/ml TNF-α + 1 μM 5Z-7 + 25 μM zVAD, 24 h",able to block
same,Block of RIPK1-dependent apoptosis (RDA),"L929 cells [1]; L929, 10 ng/ml TNF-α + 1 μM 5Z-7, 24 h, zVAD 25 μM",could also be blocked
same,Protection from RIPK1-mediated cell death induced by poly (I:C) and zVAD,L929 cells [2],effectively protect cells
same,TNF-α-induced formation of complex I (RIPK1 binding to TNFR1),TNF-α-induced complex I,not influenced
same,Activation (phosphorylation) of RIPK1 at residue Ser166,RIPK1,completely blocked
same,"Inhibition of anti-Fas antibody induced cell death (caspase-dependent, RIPK1-independent)",Jurkat cells,no inhibitory effect
same,"Cells still alive, compound added 60 min after induction of cell death",L929 cells [3],92.7%
same,"Cells still alive, compound added 3 hours after induction of cell death",L929 cells [3],58.6%
same,TNF-α-induced hypothermia,[4],significantly improves
same,Survival after TNF-α injection,"[4]; vs vehicle, p<0.001",significantly enhanced survival

# — patent US20220331322A1, “COMPOUND FOR INHIBITING CELL DEATH” (Christian-Albrechts-Universität zu Kiel, priority 2019, published 2022)
